# Source: patent publication US9387246B2, “Treatment methods for rheumatoid arthritis” (priority 2013, dated 2016)
# Like-named read-outs stand apart in the source and are kept apart here.
# Experiments:
# TNFR1 = system: TNFR1; design: key: Y: biomarkers that are known to be positively affected by a treatment method (i.e., biomarkers that are known to have a favorable response to a treatment method); N: biomarkers that are not known to be positively affected by a treatment method (i.e., biomarkers that are known to have an unfavorable response to a treatment method); biomarkers that are known to be positively affected by a ORENCIA, the brand name of Atabacept; conditions: literature 1990-2012, ACR abstracts 2006-2013; cited from earlier work
# [1] = system: Rheumatoid arthritis patients; test: Treatment outcome (effectiveness, clinical course) of treatment methods (Example 2); assay type: in vivo, human
# Method: (§1) The patients were treated with the selected treatment methods for at least five months and the post-treatment biomarker levels and VECTRA DA Score were determined by VECTRA® DA test along with CRP level and ESR. The change is VECTRA DA Score, CRP level and ESR was determined to determine the change in disease activity and effectiveness of the selected treatment method.
# [2] = system: Rheumatoid arthritis patients; test: VECTRA DA test: serum levels of biomarkers, % elevation over control (InFoRM study); assay type: in vivo, human
# Text: (§2) VECTRA® DA test is a multi-biomarker disease activity (MBDA) blood test sold by Crescendo Bioscience. The test provides a quantitative assessment of rheumatoid arthritis disease activity in patients by using twelve protein biomarkers—Vascular Cell Adhesion Molecule 1 (VCAM-1), Epidermal Growth Factor (EGF), Vascular Endothelial Growth Factor A (VEGF-A), Interleukin-6 (IL-6), Tumor Necrosis Factor Receptor Type 1 (TNFR1), Matrix Metalloproteinase-1 (MMP-1), Matrix Metalloproteinase-3 (MMP-3), YKL-40, Leptin, Resistin, Serum Amyloid A (SAA), and C-Reactive Protein (CRP). The twelve biomarkers in VECTRA® DA test are relevant to key aspects of the pathophysiology of RA. Li et al., Curr. Med. Res. & Opin. 29(1): 85-92 (2013). The test measures the concentrations of the biomarkers and provides the concentrations and percentile (RA percentile) value for each biomarker.
# The VECTRA DA MBDA test uses Meso Scale Discovery (MSD, Gaithersburg, Md., USA) sandwich immunoassay electrochemiluminescent technology to measure biomarker levels. Eastman et al., J. of Pharmaceutical and Biomedical Analysis 70: 415-424 (2012). In the immunoassay, capture antibodies are spotted on carbon electrodes in a planar array and detection antibodies are labeled with an electrochemiluminescent ruthenium reporter. Id. Upon electrical stimulation, light is produced from reporter molecules bound to the electrode to determine biomarker concentration.
# SAA = conditions: literature 1990-2012, ACR abstracts 2006-2013; cited from earlier work
# IL-6 = conditions: literature 1990-2012, ACR abstracts 2006-2013; cited from earlier work
# CRP = conditions: literature 1990-2012, ACR abstracts 2006-2013; cited from earlier work
# VEGF-A = conditions: literature 1990-2012, ACR abstracts 2006-2013; cited from earlier work
# [3] = system: Rheumatoid arthritis patients; test: Change in VECTRA DA Score after treatment, longer duration (Example 3); assay type: in vivo, human
# Method: Sixteen rheumatoid arthritis patients were selected for treatment by treatment methods that were selected using the algorithm disclosed herein. Some patients were the same as the patients discussed under Example 2. Example 3, however, tracks patients' responses to treatment for a longer duration and uses VECTRA DA Score to determine effectiveness of the treatment.
# VECTRA® DA test was conducted for each patient to determine serum levels of the all the biomarkers and VECTRA DA Score in each patient before treatment. The collection of patients closely resembles the random patient population available nationwide as shown by a comparison of the distribution of VECTRA DA Scores in FIG. 6, as noted under Example 2.
# The patients were treated with the selected treatment methods and the post-treatment biomarker levels and VECTRA DA Score were determined by VECTRA® DA test. The change is VECTRA DA Score was determined to determine the change in disease activity and effectiveness of the selected treatment method.
# The treatment method (one method or a combination of methods) was determined to be effective when the post-treatment disease activity was lower than the pre-treatment disease activity in the patient: when VECTRA DA Score was lower than the pre-treatment VECTRA DA Score. Specifically, the treatment method was determined to be effective when the post-treatment disease activity was at least 20% lower than the pre-treatment disease activity, or when the VECTRA DA Score is decreased to a lower disease activity level after the treatment (i.e., from high to moderate, or high to low, or moderate to low).
# VCAM-1 = conditions: literature 1990-2012, ACR abstracts 2006-2013; cited from earlier work
# YKL-40 = conditions: literature 1990-2012, ACR abstracts 2006-2013; cited from earlier work
# [4] = system: Rheumatoid arthritis patients; test: Change in VECTRA DA Score after treatment (Example 2); assay type: in vivo, human
# Text: as §2, with “biomarker. […]” for “biomarker.”
# as §1
# MMP-1 = conditions: literature 1990-2012, ACR abstracts 2006-2013; cited from earlier work
# MMP-3 = conditions: literature 1990-2012, ACR abstracts 2006-2013; cited from earlier work
# Leptin = conditions: literature; Leptin usable as biomarker only in patients with 15% or less body fat; cited from earlier work
# [5] = system: Rheumatoid arthritis patients; assay type: in vivo, human
# Text: A treatment method administered to a patient may be a combination of one or more treatment methods.
# Resistin = conditions: literature 1990-2012, ACR abstracts 2006-2013; cited from earlier work
# [6] = Patient 9, ACTEMRA from May 2012 not algorithm-selected, MTX added October 2012, based on ESR and CRP level
# [7] = Patient 10, MTX (November 2011) and ORENCIA (August-December 2012) not algorithm-selected, HUMIRA December 2012-June 2013, based on VECTRA DA Score
compound,measurement,setting,value
Tocilizumab [TOCL],TNFR1 positively affected by treatment method,TNFR1,N
same,Treatment Outcome,[1]; [6],Not effective
same,IL-6 elevated level,"[2]; Patient 6, February 2013",>99%
same,MMP-3 elevated level,"[2]; Patient 6, February 2013",61%
same,Resistin elevated level,"[2]; Patient 6, February 2013",70%
same,IL-6 elevated level,"[2]; Patient 6, October 2012",>99%
same,MMP-3 elevated level,"[2]; Patient 6, October 2012",88%
same,Resistin elevated level,"[2]; Patient 6, October 2012",57%
same,TNF-R1 elevated level,"[2]; Patient 6, October 2012",45%
same,SAA positively affected by treatment method,SAA,Y
same,IL-6 positively affected by treatment method,IL-6,Y
same,CRP positively affected by treatment method,CRP,Y
same,VEGF-A positively affected by treatment method,VEGF-A,Y
same,Arthritis activity class of VECTRA DA Score,"[3]; Patient 6, February 2013",high (a VECTRA DA Score of >44 reflects high disease activity)
same,Arthritis activity class of VECTRA DA Score,"[3]; Patient 6, October 2012",high (a VECTRA DA Score of >44 reflects high disease activity)
same,VECTRA DA Score,"[3]; Patient 6, October 2012, ACTEMRA 4 mg/kg",54
same,VCAM-1 positively affected by treatment method,VCAM-1,N
same,YKL-40 positively affected by treatment method,YKL-40,Y
same,VECTRA DA Score - Decreased by,"[4]; Patient 6, treatment August 2012-June 2013, score February 2013",Decreased by 24
same,MMP-1 positively affected by treatment method,MMP-1,Y
same,MMP-3 positively affected by treatment method,MMP-3,Y
same,Leptin positively affected by treatment method,Leptin,N
same,Treatment Outcome,[5]; Patient 6,"Effective, based"
same,Conventional markers of inflammation - ESR and CRP level,"[5]; Patient 6, while on ACTEMRA",normalized
same,Adverse reaction,[5]; in vivo,allergic reaction
same,Toxicity for which the treatment was excluded,[5]; in vivo,bone marrow
same,Resistin positively affected by treatment method,Resistin,N
"O=C(O)c1cc(/N=N/c2ccc(S(=O)(=O)Nc3ccccn3)cc2)ccc1O [S, Sulfasalazine]",TNFR1 positively affected by treatment method,TNFR1,Y
same,SAA positively affected by treatment method,SAA,Y
same,IL-6 positively affected by treatment method,IL-6,Y
same,CRP positively affected by treatment method,CRP,Y
same,VEGF-A positively affected by treatment method,VEGF-A,Y
same,YKL-40 positively affected by treatment method,YKL-40,N
same,MMP-3 positively affected by treatment method,MMP-3,Y
same,Leptin positively affected by treatment method,Leptin,N
same,Resistin positively affected by treatment method,Resistin,N
"CCN(CCO)CCCC(C)Nc1ccnc2cc(Cl)ccc12 (centres unmarked) [P, Hydroxychloroquine]",TNFR1 positively affected by treatment method,TNFR1,N
same,SAA positively affected by treatment method,SAA,Y
same,IL-6 positively affected by treatment method,IL-6,Y
same,CRP positively affected by treatment method,CRP,Y
same,VEGF-A positively affected by treatment method,VEGF-A,N
same,VCAM-1 positively affected by treatment method,VCAM-1,N
same,YKL-40 positively affected by treatment method,YKL-40,N
same,MMP-1 positively affected by treatment method,MMP-1,N
same,MMP-3 positively affected by treatment method,MMP-3,N
same,Resistin positively affected by treatment method,Resistin,N
"CN(Cc1cnc2nc(N)nc(N)c2n1)c1ccc(C(=O)N[C@@H](CCC(=O)O)C(=O)O)cc1 [MTX, Methotrexate]",TNFR1 positively affected by treatment method,TNFR1,N
same,Treatment Outcome,"[1]; Patient 5, MTX alone from March 2012 not algorithm-selected, MTX and CIMZIA October 2012-June 2013, based on Sedimentation Rate and CRP Level",Not effective
same,Treatment Outcome,"[1]; Patient 8, MTX not algorithm-selected, ORENCIA December 2012-June 2013, based on VECTRA DA score",Not effective
same,Treatment Outcome,[1]; [6],"Effective,"
same,Treatment Outcome,[1]; [7],Not effective
same,CRP elevated level,"[2]; Patient 5, August 2012",67%
same,IL-6 elevated level,"[2]; Patient 5, August 2012",79%
same,Leptin elevated level,"[2]; Patient 5, August 2012",97%
same,MMP-1 elevated level,"[2]; Patient 5, August 2012",79%
same,MMP-3 elevated level,"[2]; Patient 5, August 2012",95%
same,Resistin elevated level,"[2]; Patient 5, August 2012",82%
same,SAA elevated level,"[2]; Patient 5, August 2012",92%
same,TNF-R1 elevated level,"[2]; Patient 5, August 2012",79%
same,VCAM-1 elevated level,"[2]; Patient 5, August 2012",97%
same,VEGF-A elevated level,"[2]; Patient 5, August 2012",48%
same,YKL-40 elevated level,"[2]; Patient 5, August 2012",94%
same,SAA elevated level,"[2]; Patient 10, April 2012",65%
same,VEGF-A elevated level,"[2]; Patient 10, April 2012",59%
same,YKL-40 elevated level,"[2]; Patient 10, April 2012",72%
same,SAA positively affected by treatment method,SAA,Y
same,IL-6 positively affected by treatment method,IL-6,Y
same,CRP positively affected by treatment method,CRP,Y
same,VEGF-A positively affected by treatment method,VEGF-A,Y
same,Arthritis activity class of VECTRA DA Score,"[3]; Patient 5, August 2012",high (a VECTRA DA Score of >44 reflects high disease activity)
same,VECTRA DA Score increased by,"[3]; Patient 5, August 2012 since March 2012 (5 months treatment only)",by 7 since
same,Arthritis activity class of VECTRA DA Score,"[3]; Patient 10, April 2012",(moderate) (a VECTRA DA Score of >29 and ≦44 reflects moderate disease activity)
same,VECTRA DA Score,"[3]; Patient 10, April 2012, Methotrexate 10 mg/week",Score: 33
same,VCAM-1 positively affected by treatment method,VCAM-1,N
same,YKL-40 positively affected by treatment method,YKL-40,N
same,MMP-1 positively affected by treatment method,MMP-1,N
same,MMP-3 positively affected by treatment method,MMP-3,Y
same,Leptin positively affected by treatment method,Leptin,N
same,Adverse event for which dose was reduced to 10 mg/week,"[5]; human, in vivo","hair loss, April 2014"
same,Treatment effectiveness (reason for discontinuation / earlier trial),"[5]; patient 16, January 2014",without success
same,Resistin positively affected by treatment method,Resistin,N
Adalimumab [HUMIRA (TNF)],Treatment Outcome,[1]; [7],"Effective,"
same,VECTRA DA Score - Decreased by,"[4]; Patient 10, treatment December 2012-June 2013, score May 2013",Decreased by 22
Rituximab,SAA positively affected by treatment method,SAA,N
same,IL-6 positively affected by treatment method,IL-6,Y
same,CRP positively affected by treatment method,CRP,Y
same,VCAM-1 positively affected by treatment method,VCAM-1,N
same,YKL-40 positively affected by treatment method,YKL-40,N
same,MMP-1 positively affected by treatment method,MMP-1,N
same,MMP-3 positively affected by treatment method,MMP-3,N
same,Leptin positively affected by treatment method,Leptin,N
same,Resistin positively affected by treatment method,Resistin,N
"Cc1oncc1C(=O)Nc1ccc(C(F)(F)F)cc1 [ARA, Leflunomide]",TNFR1 positively affected by treatment method,TNFR1,Y
same,Treatment Outcome,"[1]; Patient 6, outcome not reflected by change in any of the three disease markers, earlier treatments not algorithm-selected",(after failing
same,CRP elevated level,"[2]; Patient 6, March 2012",93%
same,IL-6 elevated level,"[2]; Patient 6, March 2012",98%
same,Leptin elevated level,"[2]; Patient 6, March 2012",90%
same,MMP-1 elevated level,"[2]; Patient 6, March 2012",40%
same,MMP-3 elevated level,"[2]; Patient 6, March 2012",91%
same,Resistin elevated level,"[2]; Patient 6, March 2012",63%
same,SAA elevated level,"[2]; Patient 6, March 2012",97%
same,TNF-R1 elevated level,"[2]; Patient 6, March 2012",73%
same,VCAM-1 elevated level,"[2]; Patient 6, March 2012",85%
same,VEGF-A elevated level,"[2]; Patient 6, March 2012",84%
same,YKL-40 elevated level,"[2]; Patient 6, March 2012",41%
same,SAA positively affected by treatment method,SAA,Y
same,IL-6 positively affected by treatment method,IL-6,Y
same,Arthritis activity class of VECTRA DA Score,"[3]; Patient 6, March 2012",high (a VECTRA DA Score of >44 reflects high disease activity)
same,VECTRA DA Score,"[3]; Patient 6, March 2012",74
same,VCAM-1 positively affected by treatment method,VCAM-1,Y
same,MMP-1 positively affected by treatment method,MMP-1,Y
same,MMP-3 positively affected by treatment method,MMP-3,Y
same,Patient could tolerate the drug in the past,[5]; in vivo,Patient could not
same,Toxicity for which the treatment was discontinued,[5]; in vivo,to bone marrow
same,WBC count relative to normal (reason for discontinuation),[5]; in vivo,due to below
same,Resistin positively affected by treatment method,Resistin,N
